Laboratory results from article doi:10.1101/758409v1 (biorxiv, 2019).

Biological target: DDA1-DDB1ΔB-DCAF15Δpro triplex with R1R2 of RBM39 (Homo sapiens, UniProt Q14498+Q66K64, Q66K64:DEL276-383)
Assay: TR-FRET, SPLAM-induced ternary complex formation, Eu-anti-His and APC-anti-FLAG
Assay type: binding

EC50: 5 nM
Structure (SMILES): NS(=O)(=O)c1ccc(S(=O)(=O)Nc2cccc3c(Cl)c[nH]c23)cc1 [indisulam]
